Assays:
[1] = target: T1, angiotensin II AT1 receptor (Oryctolagus cuniculus, UniProt P34976); assay: Ex vivo agonist/antagonist activity on isolated rabbit thoracic aorta rings; settings: 0.3, 3 and 30 μM; for agonist activity (contraction): non-treated rabbit thoracic aorta; for antagonist activity (inhibition of contractile response to angiotensin II): rabbit thoracic aorta previously exposed to angiotensin II 0.003 μM
T1 construct: tissue CEREP; host or cells: rabbit thoracic aorta rings
T1 sequence (P34976 1-359): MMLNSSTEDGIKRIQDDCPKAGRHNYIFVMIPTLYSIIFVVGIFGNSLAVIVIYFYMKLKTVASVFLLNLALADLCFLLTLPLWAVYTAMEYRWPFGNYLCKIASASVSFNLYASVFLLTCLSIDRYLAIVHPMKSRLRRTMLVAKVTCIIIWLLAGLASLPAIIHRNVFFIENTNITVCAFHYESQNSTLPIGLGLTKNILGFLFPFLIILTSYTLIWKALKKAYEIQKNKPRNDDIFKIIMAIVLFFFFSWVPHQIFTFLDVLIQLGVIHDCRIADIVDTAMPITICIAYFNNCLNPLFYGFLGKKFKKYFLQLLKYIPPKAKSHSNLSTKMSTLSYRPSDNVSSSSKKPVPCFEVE
Protocol: This activity is either agonist or antagonist and was evaluated ex vivo on isolated organs. Agonist activity corresponds to tissue contraction. Antagonist activity corresponds to tissue dilatation.
The ex vivo test was performed at the CEREP (Celle L'Evescault, France (86)) following a protocol based on Pendleton et al. (Pendleton R G et al.,1989). Rabbit thoracic aorta rings with intact endothelium were suspended in baths for organs containing an oxygenated physiologic saline solution (95% O2 and 5% CO2) and preheated (37° C.) having the following composition (mM): NaCl 118.0, KCl 4.7, MgSO4 1.2, CaCl2 2.5, KH2PO4 1.2, NaHCO3 25.0, and glucose 11.0 (pH 7.4).
Benextramine (1 μM), propranolol (1 μM), pyrilamine (1 μM), atropine (1 μM), methysergide (1 μM), and captopril (0.1 μM) were also used in all carried out experiments to block respectively α-adrenergic, β-adrenergic, histaminic H1 muscarinic, and 5-HT2 receptors as well as to prevent peptide degradation. The tissues were bound to a force sensor suitable for isometric tension recording. They were stretched to a resting tension of 4 g, then stabilized for 60 minutes. During the stabilization, they were washed several times and the tension was adjusted. The experiments were carried out using semi-automatic systems of isolated organs with eight organ baths and multichannel data acquisition.
The tissues were exposed to a submaximal concentration of the reference agonist (angiotensin II at 0.003 μM) to verify the response and obtain a control contractile response.
After several washing operations and after having recovered the basal tone, the tissues were exposed to increasing concentrations of compounds according to the invention or the same agonist. The different concentrations were added cumulatively, each one was left in contact with the tissues until a stable response was reached and for a maximum of 30 minutes. If an agonist type response (contraction) was registered, the reference antagonist (Saralasine at 0.01 μM) was tested regarding the highest concentration of the compounds according to the invention to confirm the involvement of the AT1 receptors in the response.
After stabilization of the contraction induced by angiotensin II, increasing concentrations of compounds according to the invention or of the reference antagonist (Saralasine) were added cumulatively. Each concentration was left in contact with the tissues until a stable response was observed and for a maximum of 30 minutes.
The inhibiting effect of the compounds according to the invention on the contraction induced by the angiotensin 11 indicates antagonist activity on AT1 receptors.

[2] = tested on: db/db mouse; assay: Plasma lipids, glycemia and insulinemia in db/db mouse; type: in vivo; settings: 28-day treatment per os
Protocol: The insulin-resistance and hypolipemic properties of the compounds according to the invention were evaluated in vivo by assaying the plasma lipid, by measuring the plasma glucose and insulin levels, and by an analysis of the gene expression of PPAR target genes, after a per os treatment with the compounds according to the invention. These tests were performed in the db/db mouse
Female db/db mice were kept on a 12 hour/12 hour light/dark cycle at a constant temperature of 20±3° C. After a one week acclimatization period, the mice were weighed and divided into groups of 8 animals selected so as to render uniform the distribution of their body weights and their plasma lipid rates, determined before the experiment. The tested compounds were suspended in carboxymethylcellulose (Sigma C4888) and administered by intra-gastric tube feeding once a day for 28 days at the chosen dose. The animals had free access to food and water (standard diet). Taking of food and weight gain are recorded throughout the experiment. At the end of the experiment, the animals were anesthetized after a 4 hour fast, a blood sample was taken using (EDTA) anticoagulant, then the mice were weighed and euthanized. The plasma was separated by centrifugation at 3000 rotations/minute for 20 minutes. The samples were kept at +4° C.
Plasma lipid concentrations (total cholesterol and triglycerides) were measured by enzymatic assays (bioMerieux-Lyon-France) according to the provider's recommendations.
Murine plasma glucose was measured according to an enzyme-colorimetric method using a Glucose RTU kit (Biomerieux). Glucose is transformed into gluconic acid under the action of glucose oxidase; the reaction releases hydrogen peroxide. Hydrogen peroxide was measured according to the Trinder reaction which, under the action of a peroxidase and in the presence of phenol and amino-4-antipyrine, produces water and a colored product, quinoneimine. The color intensity, due to the quinoneimine, is proportional to the amount of glucose present in the sample.
Murine insulin is measured using ELISA method (using the INSKR020 kit from provider Crystal chem.). A microplate is coated with a mouse anti-insulin antibody. Then, the serum to be assayed for insulin is placed onto the plate. A guinea pig anti-insulin antibody is used to recognize the complex formed by the mouse insulin and the anti-insulin monoclonal antibody. Finally an anti-guinea pig antibody labeled with peroxidase is added and bind to the guinea pig anti-insulin antibody. The colorimetric reaction is performed by adding an OPD (Ortho Phenyl Diamine) enzyme substrate. The intensity of the color is proportional to the amount of insulin present in the sample.

In the case of CCCCC1=NC2(CCCCC2)C(=O)N1Cc1ccc(-c2cccc(OC(C)(C)C(=O)O)c2)cc1 [Compound 21, 2-butyl-1-[(3′-((1-carboxy-1,1-dimethylmethyl)oxy)biphenyl-4-yl)methyl]-4-spirocyclohexyl-1H-imidazol-5(4H)-one], the “agonist activity (contraction)” value [1] was “do not induce contraction”, the “antagonist activity (inhibition of contractile response to angiotensin II)” value [1] was “inhibiting effect of the contractile response of the reference agonist” and the glycemia ([2]; 100 mpk) was “decreased significantly”. The insulinemia ([2]; 100 mpk) was “decreased significantly”, the “plasma free lipids level” value ([2]; 100 mpk) was “decreased significantly” and the plasma triglycerides level ([2]; 100 mpk) was “decreased significantly”.
For CCCCC1=NC2(CCCC2)C(=O)N1Cc1ccc(-c2cccc(OC(C)(C)C(=O)O)c2)cc1 [Compound 1, 2-butyl-1-[(3′-((1-carboxy-1,1-dimethylmethyl)oxy)biphenyl-4-yl)methyl]-4-spirocyclopentyl-1H-imidazol-5(4H)-one], the “agonist activity (contraction)” value [1] was “do not induce contraction”, the “antagonist activity (inhibition of contractile response to angiotensin II)” value [1] was “inhibiting effect of the contractile response of the reference agonist” and the glycemia ([2]; 10, 30 or 100 mpk) was “decreased significantly (and dose-dependently)”. The insulinemia ([2]; 10, 30 or 100 mpk) was “decreased significantly (and dose-dependently)”, the “plasma free lipids level” value ([2]; 10, 30 or 100 mpk) was “decreased significantly (and dose-dependently)” and the plasma triglycerides level ([2]; 10, 30 or 100 mpk) was “decreased significantly (and dose-dependently)”.
